Patent publication US20060094695A1, “Hypoestoxides, derivatives and agonists thereof for use in the prophylaxis and treatment of obesity” (Paraquest, Inc., priority 2004, published 2006)

Columns and labels:
C57BL/6J-Lep^ob mice [1] = assay: Treatment of Obesity in Mice (Table 2); type: in vivo; settings: 10 mg/kg orally once a day for 50 days, approx. 4 months old, one mouse
Method: Treatment of obesity with hypoestoxide and hypoestes rosea dried leaf powder was also studied. Hypoestoxide and hypoestes rosea dried leaf powder was administered to C57BL/6J-Lep^ob mice. The mice were treated at approximately 4 months of age at a weight of approximately 50 grams. One mouse was placed in each of three treatment conditions: (i) control; (ii) hypoestoxide was administered orally at a dose of 10 mg/kg; or (iii) hypoestes dried leaf powder was administered orally at a dose of 100 mg/kg. Treatments were administered once a day, with hypoestoxide treatment lasting 50 days and hypoestes dried leaf powder treatment lasting 21 days.

C57BL/6J-Lep^ob mice [2] = assay: Prevention of Obesity in Mice (Table 1); type: in vivo; settings: 4-week-old female mice, in g
Method: The ability of hypoestoxides and hypoestes rosea dried leaf powder to prevent obesity was studied. Hypoestoxide and hypoestes rosea dried leaf powder was administered to C57BL/6J-Lep^ob mice. The mice are homozygous for the obese spontaneous mutation and are first recognizable as such at approximately 4 weeks of age. At 4 weeks, the mice weigh 20-25 grams, and may reach three to four times the weight of wild-type mice. Three 4-week-old female mice were placed in each of four treatment conditions, for a total of twelve mice in the study: (i) control; (ii) hypoestoxide was administered orally at a dose of 10 mg/kg; (iii) hypoestoxide was administered orally at a dose of 100 mg/kg; or (iv) hypoestes dried leaf powder was administered orally at a dose of 100 mg/kg. Treatments were administered once a day and the study continued for 21 days.

## C=C1C(=O)C[C@H]2C[C@@H]3O[C@@]3(C)CC[C@@H]3O[C@@]3(C)C[C@@H](OC(C)=O)[C@H]1C2(C)C [Hypoestoxide, hypoestoxide]
C57BL/6J-Lep^ob mice [1]; day 7
  weight of mouse, Treatment of Obesity in Mice: 53 g
C57BL/6J-Lep^ob mice [1]; day 14
  weight of mouse, Treatment of Obesity in Mice: 51.5 g
C57BL/6J-Lep^ob mice [1]; day 21
  weight of mouse, Treatment of Obesity in Mice: 51 g
C57BL/6J-Lep^ob mice [1]; day 28
  weight of mouse, Treatment of Obesity in Mice: 50.4 g
C57BL/6J-Lep^ob mice [1]; day 35
  weight of mouse, Treatment of Obesity in Mice: 50 g
C57BL/6J-Lep^ob mice [1]; day 160
  weight of mouse, Treatment of Obesity in Mice: 69.8 g
C57BL/6J-Lep^ob mice [1]; day −1 (before treatment)
  weight of mouse, Treatment of Obesity in Mice: 53 g
C57BL/6J-Lep^ob mice [2]; 10 mg/kg orally once a day for 21 days
  weight of mice, Prevention of Obesity in Mice: 41.6 ± 2.0
C57BL/6J-Lep^ob mice [2]; 100 mg/kg orally once a day for 21 days
  weight of mice, Prevention of Obesity in Mice: 40.0 ± 1.5
C57BL/6J-Lep^ob mice [2]; day 7, 10 mg/kg orally once a day for 21 days
  weight of mice, Prevention of Obesity in Mice: 19.6 ± 2.0
C57BL/6J-Lep^ob mice [2]; day 7, 100 mg/kg orally once a day for 21 days
  weight of mice, Prevention of Obesity in Mice: 20.9 ± 1.2
C57BL/6J-Lep^ob mice [2]; day 14, 10 mg/kg orally once a day for 21 days
  weight of mice, Prevention of Obesity in Mice: 25.4 ± 1.6
C57BL/6J-Lep^ob mice [2]; day 14, 100 mg/kg orally once a day for 21 days
  weight of mice, Prevention of Obesity in Mice: 23.8 ± 0.6
C57BL/6J-Lep^ob mice [2]; day 21, 10 mg/kg orally once a day for 21 days
  weight of mice, Prevention of Obesity in Mice: 27.5 ± 1.5
C57BL/6J-Lep^ob mice [2]; day 21, 100 mg/kg orally once a day for 21 days
  weight of mice, Prevention of Obesity in Mice: 27.0 ± 0.8
C57BL/6J-Lep^ob mice [2]; day 28, 10 mg/kg orally once a day for 21 days
  weight of mice, Prevention of Obesity in Mice: 28.8 ± 2.3
C57BL/6J-Lep^ob mice [2]; day 28, 100 mg/kg orally once a day for 21 days
  weight of mice, Prevention of Obesity in Mice: 26.4 ± 2.2
C57BL/6J-Lep^ob mice [2]; day 35, 10 mg/kg orally once a day for 21 days
  weight of mice, Prevention of Obesity in Mice: 30.3 ± 3.2
C57BL/6J-Lep^ob mice [2]; day 35, 100 mg/kg orally once a day for 21 days
  weight of mice, Prevention of Obesity in Mice: 29.0 ± 2.9
C57BL/6J-Lep^ob mice [2]; day −1 (before treatment), group 10 mg/kg orally once a day for 21 days
  weight of mice, Prevention of Obesity in Mice: 21.0 ± 1.4
C57BL/6J-Lep^ob mice [2]; day −1 (before treatment), group 100 mg/kg orally once a day for 21 days
  weight of mice, Prevention of Obesity in Mice: 24.3 ± 1.1
